US5710151A, “Method of treating urinary bladder dysfunctions” (priority 1996, dated 1998)
Where a name gives a salt, the structure may show the parent alone.

Target: muscarinic receptors
Assay: inhibition of binding of 3H-oxotremorine-M to muscarinic receptors
Settings: 3 nM 3H-oxotremorine-M, rat cerebral cortical membranes, pH 7.4, 15 min, 25° C.; read-out: Inhibition of ^3 H-Oxo
Experimental: The affinity of the compounds for the muscarinic receptors was determined using the non-selective agonist ligand, ^3 H-oxotremorine-M. Birdsdall N. J. M., Hulme E. C., and Burgen A. S. V. "The Character of Muscarinic Receptors in Different Regions of the Rat Brain", 207 Proc. Roy. Soc. 1 (London, Series B, 1980). Each compound was tested to determine the affinity of the compound for the muscarinic receptors using the following procedure.
For in vitro binding, male Sprague-Dawley (Harlan Sprague-Dawley, Indianapolis, Ind.) rats weighing from about 100 to about 150 grams each were sacrificed by decapitation. The brains were quickly removed and the cerebral cortex were dissected from the brain. The cerebral cortex tissue was homogenized in 10 volumes of 0.32M sucrose and […] at about 1000×g. The supernatant was centrifuged at about 12,000×g for about 10 minutes and the resulting pellet was resuspended in 20 mM tris-Cl, pH 7.4. The resuspended pellet was centrifuged again for about 10 minutes at about 50,000×g. The resulting homogenate was preincubated for about 10 minutes at about 25° C. and centrifuged again for about 10 minutes at about 50,000×g. The pellet was resuspended at 1 gram of pellet per 3 ml of buffer and frozen at about -80° C. until used.
The inhibition of binding of ^3 H-oxotremorine-M to muscarinic receptors was determined by mixing the compound of the Example, 3 nM ^3 H-oxotremorine-M (about 87 Ci/mmoles, New England Nuclear, Boston Mass.), and cerebral cortical membranes equivalent to about 10 mg wet weight, which is about 100 μg of cortical membrane protein, in about 1 ml total volume of […] tris-Cl buffer, pH 7.4, containing 1 mM MnCl2. The aforementioned homogenates mixture was incubated for about 15 minutes at about 25° C. and then the homogenates were filtered through glass filters (Whatman, GF/C) with vacuum. The filters were washed 3 times with about 2 ml of cold tris-Cl buffer, and placed in scintillation vials containing about 10 ml of scintillation fluid (Ready Protein+, Beckman, Fullerton, Calif.). Radioactivity trapped on the filters was determined by liquid scintillation spectrometry. Nonspecific binding was determined using 1 μM atropine. The concentration of compound required to inhibit specific binding 50% (IC50) was determined using standardized computer assisted calculations (DeLean, A. et al. Am. J. Physiol., 235, (1978)).

SMILES: N#Cc1ccc(CSc2nsnc2[C@@H]2CN3CCC[C@@H]2C3)cc1 (relative stereo) [Compound 82, Exo-6-(3-(4-cyanobenzylthio)-1,2,5-thiadiazol-4-yl)-1-azabicyclo[3.2.1]octane oxalate]
- IC50: 1.3 nM

SMILES: CCCCCCSc1nsnc1[C@@H]1CN2CCC[C@@H]1C2 (relative stereo) [Compound 29, Exo-6-(3-hexylthio-1,2,5-thiadiazol-4-yl)-1-azabicyclo[3.2.1]octane oxalate]
- IC50: 1.2 nM

SMILES: CC(C)CCCSc1nsnc1[C@@H]1CN2CCC[C@@H]1C2 [Compound 158, (5S,6S)-6-(3-isohexylthio-1,2,5-thiadiazol-4-yl)-1-azabicyclo[3.2.1]octane oxalate]
- IC50: 10 nM

SMILES: CCSc1nsnc1C1CN2CCC1CC2 (centres unmarked) [Compound 52, 3-(3-Ethylthio-1,2,5-thiadiazol-4-yl)-1-azabicyclo[2.2.2]octane oxalate]
- IC50: 1.8 nM

SMILES: Cn1nnnc1SCCCCSc1nsnc1C1CN2CCC1CC2 (centres unmarked) [Compound 106, 3-(3-(1-Methyltetrazol-5-ylthio)butylthio-1,2,5-thiadiazol-4-yl)-1-azabicylo[2.2.2]octane oxalate]
- IC50: 2.8 nM

SMILES: CCCCSc1nsnc1C1CN2CCC1CC2 (single isomer, unassigned) [Compound 56, (+) 3-(3-Butylthio-1,2,5-thiadiazol-4-yl)-1-azabicyclo[2.2.2]octane (-)D-tartrate]
- IC50: 0.4 nM

SMILES: CCCCSc1nsnc1[C@@H]1CN2CCC[C@@H]1C2 [Compound 111, (5S,6S)-6-(3-butylthio-1,2,5-thiadiazol-4-yl)-1-azabicyclo[3.2.1]octane (+) L-tartrate]
- IC50: 1 nM

SMILES: CCCCSc1nsnc1C1CN2CCC1CC2 (centres unmarked) [Compound 13, 3-(3-Butylthio-1,2,5-thiadiazol-4-yl)-1-azabicyclo[2.2.2]octane fumarate]
- IC50: 1.9 nM

SMILES: CCCCCCOc1nsnc1[C@@H]1CN2CCC[C@@H]1C2 (relative stereo) [Compound 122, Exo-6-(3-hexyloxy-1,2,5-thiadiazol-4-yl)-1-azabicyclo[3.2.1]octane oxalate]
- IC50: 2.1 nM

SMILES: CCOc1nsnc1C1CN2CCC1CC2 (centres unmarked) [Compound 9, 3-(3-Ethoxy-1,2,5-thiadiazol-4-yl)-1-azabicyclo[2.2.2]octane fumarate]
- IC50: 2.1 nM

SMILES: CCCCCOc1nsnc1[C@@H]1CN2CCC[C@@H]1C2 (relative stereo) [Compound 59, Exo-6-(3-pentyloxy-1,2,5-thiadiazol-4-yl)-1-azabicyclo[3.2.1]octane oxalate]
- IC50: 1 nM

SMILES: FC(F)(F)CCCSc1nsnc1[C@@H]1CN2CCC[C@@H]1C2 [Compound 130, (5S,6S)-6-(3-(4,4,4-trifluoro-1-butylthio)-1,2,5-thiadiazol-4-yl)-1-azabicyclo[3.2.1]octane oxalate]
- IC50: 1.8 nM

SMILES: c1ccc(OCCSc2nsnc2[C@@H]2CN3CCC[C@@H]2C3)cc1 (relative stereo) [Compound 133, Exo-6-(3-(2-phenoxyethylthio)-1,2,5-thiadiazol-4-yl)-1-azabicyclo[3.2.1]octane oxalate]
- IC50: 1.3 nM

SMILES: CCCSc1nsnc1[C@@H]1CN2CCC[C@@H]1C2 [Compound 114, (5S,6S)-6-(3-propylthio-1,2,5-thiadiazol-4-yl)-1-azabicyclo[3.2.1]octane (-) D-tartrate]
- IC50: 0.45 nM

SMILES: N#CCSc1nsnc1C1CN2CCC1CC2 (centres unmarked) [Compound 103, 3-(3-Cyanomethylthio-1,2,5-thiadiazol-4-yl)-1-azabicyclo[2.2.2]octane oxalate]
- IC50: 2.7 nM

SMILES: Cc1nnc(SCCCCSc2nsnc2C2CN3CCC2CC3)s1 (centres unmarked) [Compound 107, oxalate]
- IC50: 1 nM

SMILES: FC(F)(F)CCCSc1nsnc1[C@H]1CN2CCC[C@H]1C2 [Compound 167, (5R,6R)-6-(3-(4,4,4-trifluorobutylthio)-1,2,5-thiadiazol-4-yl)-1-azabicyclo[3.2.1]octane oxalate]
- IC50: 0.76 nM

SMILES: CCCSc1nsnc1[C@@H]1CN2CCC[C@@H]1C2 (relative stereo) [Compound 58, Exo-6-(3-propylthio-1,2,5-thiadiazol-4-yl)-1-azabicyclo[3.2.1]octane oxalate]
- IC50: 0.8 nM

SMILES: CSc1nsnc1[C@@H]1CN2CCC[C@@H]1C2 (relative stereo) [Compound 74, Exo-6-(3-methylthio-1,2,5-thiadiazol-4-yl)-1-azabicyclo[3.2.1]octane oxalate]
- IC50: 1.4 nM

SMILES: CCCSc1nsnc1[C@H]1CN2CCC[C@H]1C2 [Compound 113, (5R,6R)-6-(3-propylthio-1,2,5-thiadiazol-4-yl)-1-azabicyclo[3.2.1]octane (+) L-tartrate]
- IC50: 0.89 nM

SMILES: CC(C)CCCSc1nsnc1[C@H]1CN2CCC[C@H]1C2 [Compound 157, (5R,6R)-6-(3-isohexylthio-1,2,5-thiadiazol-4-yl)-1-azabicyclo[3.2.1]octane (+) L-tartrate]
- IC50: 10 nM

SMILES: CCOc1nsnc1[C@@H]1CN2CCC[C@@H]1C2 (relative stereo) [Compound 19, Exo-6-(3-ethoxy-1,2,5-thiadiazol-4-yl)-1-azabicyclo[3.2.1]octane oxalate]
- IC50: 1.2 nM

SMILES: CCCCCSc1nsnc1[C@@H]1CN2CCC[C@@H]1C2 (relative stereo) [Compound 31, Exo-6-(3-pentylthio-1,2,5-thiadiazol-4-yl)-1-azabicyclo[3.2.1]octane oxalate]
- IC50: 1.8 nM

SMILES: c1csc(CCCSc2nsnc2C2CN3CCC2CC3)c1 (centres unmarked) [Compound 104, 3-(3-(3-(2-Thienyl)propylthio)-1,2,5-thiadiazol-4-yl)-1-azabicyclo[2.2.2]octane fumarate]
- IC50: 2.6 nM

SMILES: c1ccc(OCCSc2nsnc2C2CN3CCC2CC3)cc1 (centres unmarked) [Compound 102, 3-(3-(2-Phenoxyethylthio)-1,2,5-thiadiazol-4-yl)-1-azabicyclo[2.2.2]octane fumarate]
- IC50: 4.5 nM

SMILES: CCCSc1nsnc1C1CN2CCC1CC2 (centres unmarked) [Compound 53, 3-(3-Propylthio-1,2,5-thiadiazol-4-yl)-1-azabicyclo[2.2.2]octane oxalate]
- IC50: 0.9 nM

SMILES: CC(C)CCCSc1nsnc1[C@@H]1CN2CCC[C@@H]1C2 (relative stereo) [Compound 76, Exo-6-(3-isohexylthio-1,2,5-thiadiazol-4-yl)-1-azabicyclo[3.2.1]octane oxalate]
- IC50: 7.7 nM

SMILES: CCCCOc1nsnc1C1CN2CCC1CC2 (centres unmarked) [Compound 46, 3-(3-Butoxy-1,2,5-thiadiazol-4-yl)-1-azabicyclo[2.2.2]octane oxalate]
- IC50: 1.6 nM

SMILES: CCSc1nsnc1[C@@H]1CN2CCC[C@@H]1C2 (relative stereo) [Compound 32, Exo-6-(3-ethylthio-1,2,5-thiadiazol-4-yl)-1-azabicyclo[3.2.1]octane oxalate]
- IC50: 1.3 nM

SMILES: CC(C)CCSc1nsnc1[C@@H]1CN2CCC[C@@H]1C2 (relative stereo) [Compound 77, Exo-6-(3-isopentylthio-1,2,5-thiadiazol-4-yl)-1-azabicyclo[3.2.1]octane]
- IC50: 2.7 nM

SMILES: CCCOc1nsnc1[C@@H]1CN2CCC[C@@H]1C2 (relative stereo) [Compound 119, Exo-6-(3-propoxy-1,2,5-thiadiazol-4-yl)-1-azabicyclo[3.2.1]octane oxalate]
- IC50: 0.9 nM

SMILES: CCCCSc1nsnc1[C@@H]1CN2CCC[C@@H]1C2 (relative stereo) [Compound 30, Exo-6-(3-butylthio-1,2,5-thiadiazol-4-yl)-1-azabicyclo[3.2.1]octane oxalate]
- IC50: 0.4 nM

SMILES: CSc1nsnc1C1CN2CCC1CC2 (centres unmarked) [Compound 131, 3-(3-Methylthio-1,2,5-thiadiazol-4-yl)-1-azabicyclo[2.2.2]octane oxalate]
- IC50: 2.8 nM

SMILES: CCCCSc1nsnc1[C@H]1CN2CCC[C@H]1C2 [Compound 112, (5R,6R)-6-(3-butylthio-1,2,5-thiadiazol-4-yl)-1-azabicyclo[3.2.1]octane (-) D-tartrate]
- IC50: 0.6 nM

SMILES: CCCCOc1nsnc1[C@@H]1CN2CCC[C@@H]1C2 (relative stereo) [Compound 120, Exo-6-(3-butoxy-1,2,5-thiadiazol-4-yl)-1-azabicyclo[3.2.1]octane oxalate]
- IC50: 0.9 nM
